From patent US20240199651A1, “ANTIBACTERIAL COMPOUNDS” (JANSSEN SCIENCES IRELAND UNLIMITED COMPANY, priority 2021, published 2024)
Like-named read-outs stand apart in the source and are kept apart here.

How the values were obtained:
[1] = Mitochondrial toxicity (Glu/Gal) assay; format: cell-based; settings: for Δ IC50, glu/IC50, gal: ratio IC50 glu / IC50 gal; for Score: mitotoxicity score, Glu/Gal assay
Excerpt: (§1) The compounds of the invention/examples may have advantages associated with in vitro potency, kill kinetics (i.e. bactericidal effect) in vitro, PK properties, food effect, safety/toxicity (including liver toxicity, coagulation, 5-LO oxygenase), metabolic stability, Ames II negativity, MNT negativity, aqueous based solubility (and ability to formulate) and/or cardiovascular effect e.g. on animals (e.g. anesthetized guinea pig). Data that is generated/calculated may be obtained using standard methods/assays, for instance that are available in the literature or which may be performed by a supplier (e.g. Microsomal Stability Assay—Cyprotex, Mitochondrial toxicity (Glu/Gal) assay—Cyprotex, as well as literature CYP cocktail inhibition assays). GSH can be measured (reactive metabolites, glucuronidation) to observe if a dihydrodiol is observed by LCMS (fragmentation ions), which would correspond to a dihydroxylation on the core heterocycle.

[2] = LM CLint (microsomal stability), human; format: in vitro ADME; settings: for microsomal CLint at 1 µM: liver microsomes, read-out: CLint Microsomes, Human (h); for CLint Microsomes, Human (h): 1 μm
Excerpt: as §1
(§2) CLint Microsomes (μL/Min/Mg) in Dog (d), Human (h), Mouse (m) and Rat (r) (all at 1 μm)

[3] = Chemical stability testing (LCMS); format: physicochemical
Protocol: • Add 3 μl of a 10 mM DMSO stock solution to 1 ml of the following solvents in a 1.5 ml HPLC vial. • DMSO (reference solution) • H2O/Acetonitril 1/1 (assay solution) • 0.1N HCl/Acetonitril 1/1 (assay solution) • Mix well, […] LCMS • Compare the chromatograms of the two assay solutions with the reference solution and report the additional peaks as degradation peaks

[4] = LM CLint (microsomal stability), mouse; format: in vitro ADME; settings: 1 μm; for microsomal CLint at 1 µM: microsomes, read-out: CLint Microsomes, Mouse (m)
Excerpt: as §1, §2

[5] = tested on: Mycobacterium tuberculosis strain EH4.0 expressing green-fluorescent protein (GFP); assay: microbe, parasite or virus in culture; format: cell-based
[6] = Mycobacterium tuberculosis, Test 1 (and/or Test 2), M. tuberculosis
[7] = galactose medium (Glu/Gal mitotoxicity assay), read-out: IC50, gal
[8] = glucose medium (Glu/Gal mitotoxicity assay), read-out: IC50, glu
[9] = Test 1 (and/or Test 2), M. tuberculosis

| SMILES | IC50 ([1]; read-out: IC50, gal) | IC50 ([1]; read-out: IC50, glu) | microsomal CLint at 1 µM [2] | microsomal CLint at 1 µM [4] | AC50 [5, 6] | IC50 [1, 7] | IC50 [1, 8] | also measured |
| --- | --- | --- | --- | --- | --- | --- | --- | --- |
| CCc1nc2ccc(Cl)cn2c1C(=O)NCc1cnc(-c2nc3n(n2)CCN(S(=O)(=O)C(F)(F)F)C3)c(F)c1 [Compound 15] | > 200 µM | > 200 µM | 16.2 µL/min/mg | 50.6 µL/min/mg |  |  |  | chemical stability, % by LCMS ([3]; 72 h, 30 µM): 97.03%; chemical stability, % by LCMS ([3]; 72 h, 30 µM, pH 1.6): 97.49% |
| CCc1nc2ncc(C)cn2c1C(=O)NCc1cnc(-c2cc3n(n2)CCN(S(=O)(=O)C(F)(F)F)C3)c(C)c1 [Compound 129] | > 200 µM | > 200 µM | 50.4 µL/min/mg | 29.4 µL/min/mg |  |  |  |  |
| O=C(NCc1ccc(-c2nc3n(n2)CCN(S(=O)(=O)C(F)(F)F)C3)c(F)c1)c1c(C2CC2)nc2ccccn12 [Compound 123] |  |  |  |  | 0.018 µM | > 100 µM | > 100 µM |  |
| CCc1nc2ncc(C)cn2c1C(=O)NCc1ccc(-c2cc3n(n2)CCN(S(=O)(=O)C(F)(F)F)C3)c(C)c1 [Compound 84] |  |  |  |  |  | 62.5 µM | > 200 µM | AC50 [5]: 0.0076 µM; Δ IC50, glu/IC50, gal [1]: >3.2; CLint Microsomes, Human (h) [2]: 205 μL/Min/Mg; CLint Microsomes, Mouse (m) [4]: 21.2 μL/Min/Mg |
| CCc1nc2ncc(C)cn2c1C(=O)NCc1ccc(-c2nn3c(c2C)CN(S(=O)(=O)C(F)(F)F)CC3)cc1 [Compound 85] |  |  |  |  |  | 30.1 µM | > 200 µM | AC50 [5, 9]: 0.018 µM; Score [1]: [x]3; Δ IC50, glu/IC50, gal [1]: >6.65 |
| CCc1nc2cc(NC)c(Cl)cn2c1C(=O)NCc1ccc(-c2nc3n(n2)CCN(S(=O)(=O)C(F)(F)F)C3)c(F)c1 [Compound 13] | 23.5 µM | 29.5 µM |  |  |  |  |  | IC50 [5, 6]: > 0.5 µM; Score [1]: [x]1; Δ IC50, glu/IC50, gal [1]: 1.25 |
| Cc1cnc2nc(C3CC3)c(C(=O)NCc3ccc(-c4cn5c(n4)CN(S(=O)(=O)C(F)(F)F)CC5)c(F)c3)n2c1 [Compound 112] |  |  |  |  | 0.0095 µM | > 100 µM | > 100 µM |  |
| CCc1nc2ncc(C)cn2c1C(=O)NCc1cccc(-c2cnn3c2CN(S(=O)(=O)C(F)(F)F)CC3)c1 [Compound 92] | 133 µM | 195 µM |  |  | > 0.5 µM |  |  | Score [1]: [x]1; Δ IC50, glu/IC50, gal [1]: 1.47 |
| Cc1cnc2nc(C3CC3)c(C(=O)NCc3ccc(-c4cc5n(n4)CCN(S(=O)(=O)C(C)C)C5)cc3)n2c1 [Compound 106] | > 100 µM | > 100 µM | 111 µL/min/mg | 83.4 µL/min/mg |  |  |  |  |
| CCc1nc2ncc(C)cn2c1C(=O)NC1(c2ccc(-c3nc4n(n3)CCN(S(=O)(=O)C(F)(F)F)C4)cc2)CC1 [Compound 68] | > 100 µM | > 100 µM |  |  |  |  |  | IC50 [5, 6]: > 0.501 µM |
| CCc1nc2ncc(Cl)cn2c1C(=O)NCc1ccc(-c2nc3n(n2)CCN(S(=O)(=O)C(F)(F)F)C3)c(F)c1 [Compound 4] |  |  |  |  |  | > 100 µM | > 100 µM | pIC50 [5, 9]: 7.90 |
| Cc1cnc2nc(C3CC3)c(C(=O)NCc3ccc(-c4nc5n(n4)CCN(S(=O)(=O)C(F)(F)F)C5)c(C)c3)n2c1 [Compound 98] | 97.8 µM | 177 µM | 51.8 µL/min/mg | 26.9 µL/min/mg | 0.017 µM |  |  | Score [1]: [x]1; Δ IC50, glu/IC50, gal [1]: 1.81 |
| CCc1nc2ncc(C)cn2c1C(=O)NCc1cccc(Cc2nc3n(n2)CCN(S(=O)(=O)C(F)(F)F)C3)c1 [Compound 71] | > 200 µM | > 200 µM |  |  |  |  |  | IC50 [5, 6]: > 0.501 µM |
| CCc1nc2ncc(C)cn2c1C(=O)NCCc1ccc(-c2nc3n(n2)CCN(S(=O)(=O)C(F)(F)F)C3)cc1 [Compound 66] | > 200 µM | > 200 µM | 39.6 µL/min/mg | 92.3 µL/min/mg |  |  |  | IC50 [5, 6]: 0.269 µM; chemical stability, % by LCMS ([3]; 0 h, 30 µM): 91%; chemical stability, % by LCMS ([3]; 48 h, 30 µM): 98%; chemical stability, % by LCMS ([3]; 48 h, 30 µM, pH 1.6): 98% |
| Cc1cnc2nc(C(F)(F)F)c(C(=O)NCc3ccc(-c4nc5n(n4)CCN(S(=O)(=O)C(F)(F)F)C5)cc3)n2c1 [Compound 113] |  |  |  |  | 0.032 µM | > 100 µM | > 100 µM |  |
| CCc1nc2nc3c(cn2c1C(=O)NCc1ccc(-c2nc4n(n2)CCN(S(=O)(=O)C(F)(F)F)C4)c(F)c1)CCOC3 [Compound 18] | 184 µM | > 200 µM | 20.1 µL/min/mg | 36.9 µL/min/mg |  |  |  | Score [1]: [x]1; Δ IC50, glu/IC50, gal [1]: >1.09 |
| CCc1nc2nc(C)c(Cl)cn2c1C(=O)NCc1ccc(-c2nc3n(n2)CCN(S(=O)(=O)C(F)(F)F)C3)cc1 [Compound 8] |  |  |  |  |  | 41.7 µM | 51.2 µM | pIC50 [5, 9]: 7.58; Score [1]: [x]1; Δ IC50, glu/IC50, gal [1]: 1.23 |
| Cc1cnc2nc(C3CC3)c(C(=O)NCc3ccc(-c4cn5c(n4)CN(S(=O)(=O)C(F)(F)F)CC5)cc3)n2c1 [Compound 94] | > 200 µM | > 200 µM | 98.1 µL/min/mg | 18.1 µL/min/mg | 0.063 µM |  |  |  |
| CCc1nc2ncc(C)cn2c1C(=O)NCc1ccc(-c2nc3n(n2)CCN(S(=O)(=O)N2CCCC2)C3)cc1 [Compound 47] | > 200 µM | > 200 µM | 58.5 µL/min/mg | 13.9 µL/min/mg |  |  |  | chemical stability, % by LCMS ([3]; 48 h, 30 µM): 99%; chemical stability, % by LCMS ([3]; 48 h, 30 µM, pH 1.6): 100% |
| O=C(NCc1ccc(-c2cc3n(n2)CCN(S(=O)(=O)C(F)(F)F)C3)cc1)c1c(C2CC2)nc2ncc(Cl)cn12 [Compound 104] |  |  |  |  | 0.11 µM | > 50 µM | > 50 µM |  |
| CCc1nc2ncc(C)cn2c1C(=O)NCc1ccc(-c2cn3c(n2)CN(S(=O)(=O)C(F)(F)F)CC3)c(F)c1 [Compound 80] |  |  |  |  |  | > 200 µM | > 200 µM | pIC50 [5]: 8.06; CLint Microsomes, Human (h) [2]: 39.8 μL/Min/Mg; chemical stability, % by LCMS ([3]; ACN/0.1N HCl (pH 1.6; 0 hr, rt)): 100%; chemical stability, % by LCMS ([3]; ACN/0.1N HCl (pH 1.6; 48 hr, rt)): 100%; chemical stability, % by LCMS ([3]; ACN/0.1N NaOH (pH 9-10; 0 hr, rt)): 76.8%; chemical stability, % by LCMS ([3]; ACN/0.1N NaOH (pH 9-10; 48 hr, rt)): 16.8%; chemical stability, % by LCMS ([3]; DMSO (0 hr, rt)): 100%; chemical stability, % by LCMS ([3]; DMSO (48 hr, rt)): 100%; CLint Microsomes, Mouse (m) [4]: 13.2 μL/Min/Mg |
| CCc1nc2ncc(C)cn2c1C(=O)NCc1ccc(-c2cc3n(n2)CCN(S(=O)(=O)C(F)(F)F)C3)nc1 [Compound 127] | > 200 µM | > 200 µM | 31.5 µL/min/mg | 9.29 µL/min/mg | 0.049 µM |  |  |  |
| CCc1nc2ncc(C)cn2c1C(=O)NCc1ccc(-c2cc3n(n2)CCN(S(=O)(=O)C(F)(F)F)C3)cc1 [Compound 44] | > 200 µM | > 200 µM | 176 µL/min/mg | 20 µL/min/mg |  |  |  | chemical stability, % by LCMS ([3]; 48 h, 30 µM): 100%; chemical stability, % by LCMS ([3]; 48 h, 30 µM, pH 1.6): 100% |
| CCc1nc2ncc(C)cn2c1C(=O)NCc1ccc(-c2nc3n(c2C)CCN(S(=O)(=O)C(F)(F)F)C3)cc1 [Compound 86] | > 100 µM | > 100 µM |  |  | 0.03 µM |  |  |  |
| CCc1nc2ncc(C)cn2c1C(=O)NCc1coc(-c2nc3n(n2)CCN(S(=O)(=O)C(F)(F)F)C3)n1 [Compound 72] | > 200 µM | > 200 µM |  |  |  |  |  | IC50 [5, 6]: > 0.501 µM |
| CCc1nc2ccc(C)cn2c1C(=O)NCc1ccc(-c2nc3n(n2)CCN(S(=O)(=O)C(F)(F)F)C3)cc1 [Compound 24] | > 200 µM | > 200 µM | 169 µL/min/mg | 76.3 µL/min/mg |  |  |  | chemical stability, % by LCMS ([3]; 0 h, 30 µM): 100%; chemical stability, % by LCMS ([3]; 0 h, 30 µM, pH 1.6): 100%; chemical stability, % by LCMS ([3]; 0 h, 30 µM, pH 9): 89.46%; chemical stability, % by LCMS ([3]; 48 h, 30 µM): 100%; chemical stability, % by LCMS ([3]; 48 h, 30 µM, pH 1.6): 100%; chemical stability, % by LCMS ([3]; 48 h, 30 µM, pH 9): 43.8% |
| Cc1cnc2nc(C(F)(F)F)c(C(=O)NCc3ccc(-c4cc5n(n4)CCN(S(=O)(=O)C(F)(F)F)C5)cc3)n2c1 [Compound 114] |  |  |  |  | 0.0098 µM | > 12.5 µM | > 12.5 µM |  |
| CCc1nc2cc(Cl)c(C)cn2c1C(=O)NCc1ccc(-c2nc3n(n2)CCN(S(=O)(=O)C(F)(F)F)C3)c(F)c1 [Compound 19] |  |  |  |  |  | > 25 µM | > 25 µM | IC50 [5, 6]: 0.331 µM |
